Experimental findings from US9850283B2, “Macrocyclic inhibitors of the PD-1/PD-L1 and CD80(B7-1)/PD-L1 protein/protein interactions” (BRISTOL-MYERS SQUIBB COMPANY, priority 2013, dated 2017) are described below.

Like-named read-outs stand apart in the source and are kept apart here. Positions of bridges follow the written chain, without caps; N, C: chain ends. Non-standard residues stand in square brackets, D forms with d. Residues, ends and D or L forms follow the SMILES beside them. ξ: configuration not given here. *: point of attachment. Tyr(3-Br) = N[C@@H](Cc1ccc(O)c(Br)c1)C(=O)O; Cyclopentanecarbonyl = O=C(C1CCCC1)*; Bta = N[C@@H](Cc1csc2ccccc12)C(=O)O; Hyp = O=C(O)[C@@H]1C[C@@H](O)CN1; NMeF = CN[C@@H](Cc1ccccc1)C(=O)O; AllylGly = C=CC[C@H](N)C(=O)O; NMeNle = CCCC[C@H](NC)C(=O)O; hSer = N[C@@H](CCO)C(=O)O; NMeA = CN[C@@H](C)C(=O)O; Dab = NCC[C@H](N)C(=O)O; Dap = NC[C@H](N)C(=O)O; ξC = NC(CS)C(=O)O; Sar = CNCC(=O)O

For assay [1], the target named is T1, Human PD-L1/PD-1 (Homo sapiens, UniProt Q9NZQ7).
T1 construct: made in house; host or cells: HEK293T
T1 sequence (Q9NZQ7 with tags, fused parts or gaps): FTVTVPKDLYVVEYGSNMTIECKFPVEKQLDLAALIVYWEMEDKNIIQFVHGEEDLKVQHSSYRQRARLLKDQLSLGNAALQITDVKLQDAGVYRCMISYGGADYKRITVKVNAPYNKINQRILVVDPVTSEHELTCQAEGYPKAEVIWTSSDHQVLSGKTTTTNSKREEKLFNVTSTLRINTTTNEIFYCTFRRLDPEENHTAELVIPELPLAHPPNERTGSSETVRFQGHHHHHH
In words: HTRF PD-1-Ig/PD-L1-His binding assay (human PD-L1). As to conditions: cluster symbol; read-out: HTRF IC50 cluster. The gist of the method: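 The time-resolved fluorescence signal comes from Eu-cryptate anti-Ig (1 nM) and APC anti-His (20 nM) antibodies bound to a PD-1-Ig/PD-L1-His complex. Both partners lack transmembrane regions.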

Assay [2] addresses T2, LK35.2-hPD-L1 cells / PE-labeled PD-1-Ig (Homo sapiens, UniProt Q9NZQ7).
T2 construct: expressed in transfected cells; host or cells: LK35.2 mouse B cell line
In words: LK35.2-hPD-L1 cell binding high-content screening assay. The settings on record: cluster symbol, read-out: CBA IC50 cluster. Type of assay: cell-based. The gist of the method: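 Binding of PE-conjugated human PD-1-Ig (1 nM final) to human PD-L1 stably expressed on a mouse B-cell line (LK35.2) was measured by high-content imaging after washes. Compound and labeled PD-1-Ig were co-incubated 1 h at 37 °C with cells in RPMI/10% FCS.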

The mark [3] stands for this setting: cell binding assay, cell line not given.
Where [4] appears, read: cell line of CBA not given (LK35.2-hPD-L1 or 293T-hPD-L1).

T2 sequence (Q9NZQ7 19-290): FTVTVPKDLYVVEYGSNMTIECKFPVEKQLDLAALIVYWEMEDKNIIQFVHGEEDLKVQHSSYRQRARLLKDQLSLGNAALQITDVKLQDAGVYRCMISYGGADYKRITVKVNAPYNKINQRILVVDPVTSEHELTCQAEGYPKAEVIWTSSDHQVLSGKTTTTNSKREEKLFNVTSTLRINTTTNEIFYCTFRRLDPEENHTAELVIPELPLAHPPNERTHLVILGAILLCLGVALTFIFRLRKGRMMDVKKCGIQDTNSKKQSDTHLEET

Regarding `CCCC[C@H]1C(=O)N[C@@H](CCCNC(=N)N)C(=O)NC(C(=O)NCC(N)=O)CSCC(=O)N[C@@H](Cc2ccc(O)cc2)C(=O)N(C)[C@@H](C)C(=O)N[C@@H](CC(N)=O)C(=O)N2CCC[C@H]2C(=O)N[C@@H](Cc2cnc[nH]2)C(=O)N[C@@H](CC(C)C)C(=O)N2C[C@H](O)C[C@H]2C(=O)N[C@@H](Cc2c[nH]c3ccccc23)C(=O)N[C@@H](CO)C(=O)N[C@@H](Cc2c[nH]c3ccccc23)C(=O)N(C)[C@@H](COCC)C(=O)N1C` (stereo partly shown) [Example 9046], the 50% inhibitory concentration (IC50) (usually the concentration that gives 50% inhibition) in assay [1] was in the range of 0.385 to 6.74 nM; in assay [2] (setting [3]), 0.158 to 4.71 nM.
For `CCCC[C@H]1C(=O)N2CCC[C@@H]2C(=O)N[C@@H](CCN)C(=O)N[C@H](C(=O)NCC(N)=O)CSCC(=O)N[C@@H](Cc2ccc(O)c(Br)c2)C(=O)N(C)[C@@H](C)C(=O)N[C@@H](CC(N)=O)C(=O)N2CCC[C@H]2C(=O)N[C@@H](Cc2cnc[nH]2)C(=O)N[C@@H](CC(C)C)C(=O)N2C[C@H](O)C[C@H]2C(=O)N[C@@H](Cc2c[nH]c3ccccc23)C(=O)N[C@@H](CCN)C(=O)N[C@@H](Cc2c[nH]c3ccccc23)C(=O)N1C` [Example 6044] ({CH2CO}-[Tyr(3-Br)][NMeA]NPHL[Hyp]W[Dab]W[NMeNle][dP][Dab]CG-NH2; thioether N-14) the same measures were 6.76 to 30.3 nM and above 74.3 nM.
With `CCCC[C@H]1C(=O)N(C)CC(=O)N[C@@H](CC(=O)O)C(=O)N[C@@H](C(C)C)C(=O)N[C@@H](Cc2ccc(O)cc2)C(=O)N[C@@H](Cc2ccc(O)cc2)C(=O)N(C)CC(=O)N[C@@H](Cc2c[nH]c3ccccc23)C(=O)N[C@@H](Cc2ccc(O)cc2)C(=O)N[C@@H](CC(C)C)C(=O)N[C@H](C(=O)NCC(N)=O)CSCC(=O)N[C@@H](Cc2ccccc2)C(=O)N(C)[C@@H](Cc2ccccc2)C(=O)N1C` [Example 3504] (HELM PEPTIDE1{[O=C(C[*:3])[*:2]].F.[meF].[CCCC[C@@H](C(=O)[*:2])N(C)[*:1]].[Sar].D.V.Y.Y.[Sar].W.Y.L.C.G.[am]}$PEPTIDE1,PEPTIDE1,1:R3-14:R3$$$V2.0), the half-maximal inhibitory concentration (IC50) in assay [1] is above 30.5 nM; in assay [2] (setting [3]) it was above 74.3 nM.
For `C=CC[C@@H]1NC(=O)[C@H](Cc2c[nH]c3ccccc23)NC(=O)[C@@H]2C[C@@H](O)CN2C(=O)[C@H](CC(C)C)NC(=O)[C@H](Cc2cnc[nH]2)NC(=O)[C@@H]2CCCN2C(=O)[C@H](CC(N)=O)NC(=O)[C@H](C)N(C)C(=O)[C@H](Cc2ccc(O)cc2)NC(=O)CSC[C@@H](C(=O)NCC(N)=O)NC(=O)[C@H](CC=C)NC(=O)[C@H](CCCC)N(C)C(=O)[C@H](CCCC)N(C)C(=O)[C@H](Cc2c[nH]c3ccccc23)NC1=O` [Example 7019] ({CH2CO}-Y[NMeA]NPHL[Hyp]W[AllylGly]W[NMeNle][NMeNle][AllylGly]CG-NH2; thioether N-14) the same measures were 0.385 to 6.74 nM and 0.158 to 4.71 nM.
For `CCCC[C@H]1C(=O)N(C)[C@@H](CCCC)C(=O)N[C@@H](CCN)C(=O)N[C@H](C(=O)NCC(N)=O)CSCC(=O)N[C@@H](Cc2ccc(O)cc2)C(=O)N(C)[C@@H](C)C(=O)N[C@@H](CC(=O)O)C(=O)N2CCC[C@H]2C(=O)N[C@@H](Cc2cnc[nH]2)C(=O)N[C@@H](CCC(=O)O)C(=O)N2C[C@H](O)C[C@H]2C(=O)N[C@@H](Cc2c[nH]c3ccccc23)C(=O)N[C@@H](CCN)C(=O)N[C@@H](Cc2c[nH]c3ccccc23)C(=O)N1C` [Example 5034] ({CH2CO}-Y[NMeA]DPHE[Hyp]W[Dab]W[NMeNle][NMeNle][Dab]CG-NH2; thioether N-14), the 50% inhibitory concentration (IC50) in assay [1] was 0.385 to 6.74 nM; in assay [2] (setting [3]) it was 0.158 to 4.71 nM.
Consider `CCCC[C@H]1C(=O)N(C)[C@@H](CCCC)C(=O)N[C@@H](CCCNC(=N)N)C(=O)NC(C(=O)NCC(N)=O)CSCC(=O)N[C@@H](Cc2ccc(O)cc2)C(=O)N(C)[C@@H](C)C(=O)N[C@@H](CC(N)=O)C(=O)N2CCC[C@H]2C(=O)N[C@@H](Cc2cnc[nH]2)C(=O)N[C@@H](CCO)C(=O)N2C[C@H](O)C[C@H]2C(=O)N[C@@H](Cc2c[nH]c3ccccc23)C(=O)N[C@@H](CO)C(=O)N[C@@H](Cc2csc3ccccc23)C(=O)N1C` (stereo partly shown) [Example 9050] ({CH2CO}-Y[NMeA]NPH[hSer][Hyp]WS[Bta][NMeNle][NMeNle]R[ξC]G-NH2; thioether N-14), for which the values for the IC50 in assay [1] and in assay [2] (setting [3]) were 0.385 to 6.74 nM and above 74.3 nM, respectively.
For `CCCC[C@H]1C(=O)N(C)[C@@H](CCCC)C(=O)N[C@@H](CCCNC(=N)N)C(=O)NC(C(=O)NCC(N)=O)CSCC(=O)N[C@@H](Cc2ccc(O)cc2)C(=O)N(C)[C@@H](C)C(=O)N[C@@H](CC(N)=O)C(=O)N2CCC[C@H]2C(=O)N[C@@H](Cc2cnc[nH]2)C(=O)N[C@@H](CC(N)=O)C(=O)N2C[C@H](O)C[C@H]2C(=O)N[C@@H](Cc2c[nH]c3ccccc23)C(=O)N[C@@H](CO)C(=O)N[C@@H](Cc2c[nH]c3ccccc23)C(=O)N1C` (stereo partly shown) [Example 9065] ({CH2CO}-Y[NMeA]NPHN[Hyp]WSW[NMeNle][NMeNle]R[ξC]G-NH2; thioether N-14) the same measures were 0.385 to 6.74 nM and 0.158 to 4.71 nM.
In the case of `CCCC[C@H]1C(=O)N(C)[C@@H](Cc2ccccc2)C(=O)N[C@@H](CCCNC(=N)N)C(=O)N[C@H](C(=O)NCC(N)=O)CSCC(=O)N[C@@H](Cc2ccccc2)C(=O)N(C)[C@@H](C)C(=O)N[C@@H](CC(N)=O)C(=O)N2CCC[C@H]2C(=O)N[C@@H](Cc2cnc[nH]2)C(=O)N[C@@H](CC(C)C)C(=O)N(C)CC(=O)N[C@@H](Cc2c[nH]c3ccccc23)C(=O)N[C@@H](CO)C(=O)N[C@@H](Cc2c[nH]c3ccccc23)C(=O)N1C` [Example 1003] (HELM PEPTIDE1{[O=C(C[*:3])[*:2]].F.[meA].N.P.H.L.[Sar].W.S.W.[CCCC[C@@H](C(=O)[*:2])N(C)[*:1]].[meF].R.C.G.[am]}$PEPTIDE1,PEPTIDE1,1:R3-15:R3$$$V2.0), the results for the IC50 in assay [1] and in assay [2] (setting [4]) were above 30.5 nM and above 74.3 nM, respectively.
For `CCCC[C@H]1C(=O)N(C)[C@@H](CCCC)C(=O)N[C@@H](CCCNC(=N)N)C(=O)N[C@H](C(=O)NCC(N)=O)CSCC(=O)N[C@@H](Cc2ccc(O)cc2)C(=O)N2CCC[C@H]2C(=O)N[C@@H](CC(N)=O)C(=O)N2CCC[C@H]2C(=O)N[C@@H](Cc2cnc[nH]2)C(=O)N[C@@H](CC(C)C)C(=O)N2CCC[C@H]2C(=O)N[C@@H](Cc2c[nH]c3ccccc23)C(=O)N[C@@H](CO)C(=O)N[C@@H](Cc2c[nH]c3ccccc23)C(=O)N1C` [Example 1136] ({CH2CO}-YPNPHLPWSW[NMeNle][NMeNle]RCG-NH2; thioether N-14) the same measures were 6.76 to 30.3 nM and 4.78 to 72.9 nM.
`CCCC[C@H]1C(=O)N(C)[C@@H](CCCC)C(=O)N[C@@H](CC(=O)O)C(=O)N[C@H](C(=O)NCC(N)=O)CSCC(=O)N[C@@H](Cc2ccc(O)cc2)C(=O)N(C)[C@@H](C)C(=O)N[C@@H](CC(=O)O)C(=O)N2CCC[C@H]2C(=O)N[C@@H](Cc2c[nH]cn2)C(=O)N[C@@H](CCCCN)C(=O)N2C[C@H](O)C[C@H]2C(=O)N[C@@H](Cc2c[nH]c3ccccc23)C(=O)N[C@@H](CCCCN)C(=O)N[C@@H](Cc2c[nH]c3ccccc23)C(=O)N1C` [Example 5096] ({CH2CO}-Y[NMeA]DPHK[Hyp]WKW[NMeNle][NMeNle]DCG-NH2; thioether N-14): the values for the IC50 in assay [1] and in assay [2] (setting [3]) were 0.385 to 6.74 nM and 0.158 to 4.71 nM, respectively.
For `CCCC[C@H]1C(=O)N(C)[C@@H](CCCC)C(=O)N[C@@H](CCCNC(=N)N)C(=O)NC(C(=O)NCC(N)=O)CSCC(=O)N[C@@H](Cc2ccc(O)cc2)C(=O)N(C)[C@@H](C)C(=O)N[C@@H](CC(N)=O)C(=O)N2CCC[C@H]2C(=O)N[C@@H](CC(N)=O)C(=O)N[C@@H](CC(C)C)C(=O)N2CCC[C@H]2C(=O)N[C@@H](Cc2c[nH]c3ccccc23)C(=O)N[C@@H](CO)C(=O)N[C@@H](Cc2c[nH]c3ccccc23)C(=O)N1C` (stereo partly shown) [Example 9059] ({CH2CO}-Y[NMeA]NPNLPWSW[NMeNle][NMeNle]R[ξC]G-NH2; thioether N-14), the IC50 in assay [1] was 6.76 to 30.3 nM; in assay [2] (setting [3]), 4.78 to 72.9 nM.
In the case of `CCCC[C@H]1C(=O)N[C@@H](CCCNC(=N)N)C(=O)N[C@H](C(=O)NCC(N)=O)CSCC(=O)N[C@@H](Cc2ccccc2)C(=O)N(C)[C@@H](C)C(=O)N[C@@H](CC(N)=O)C(=O)N2CCC[C@H]2C(=O)N[C@@H](Cc2cnc[nH]2)C(=O)N[C@@H](CC(C)C)C(=O)N(C)CC(=O)N[C@@H](Cc2c[nH]c3ccccc23)C(=O)N[C@@H](CO)C(=O)N[C@@H](Cc2c[nH]c3ccccc23)C(=O)N[C@@H](CNC(=O)C2CCCC2)C(=O)N1C` [Example 1012] ({CH2CO}-F[NMeA]NPHL[Sar]WSW[Dap](Cyclopentanecarbonyl)[NMeNle]RCG-NH2; thioether N-14), the figures for the IC50 in assay [1] and in assay [2] (setting [4]) were above 30.5 nM and above 74.3 nM, respectively.
As to `CCCC[C@H]1C(=O)N[C@@H](CN)C(=O)N[C@H](C(=O)NCC(N)=O)CSCC(=O)N[C@@H](Cc2ccc(O)cc2)C(=O)N(C)[C@@H](C)C(=O)N[C@@H](CC(N)=O)C(=O)N2CCC[C@H]2C(=O)N[C@@H](Cc2c[nH]cn2)C(=O)N[C@@H](CCC(=O)O)C(=O)N2C[C@H](O)C[C@H]2C(=O)N[C@@H](Cc2c[nH]c3ccccc23)C(=O)N[C@@H](CCN)C(=O)N[C@@H](Cc2c[nH]c3ccccc23)C(=O)N(C)[C@@H](Cc2ccccc2)C(=O)N1C` [Example 5144] ({CH2CO}-Y[NMeA]NPHE[Hyp]W[Dab]W[NMeF][NMeNle][Dap]CG-NH2; thioether N-14), the results for the concentration for half-maximal inhibition (IC50) in assay [1] and in assay [2] (setting [3]) were 0.385 to 6.74 nM and 0.158 to 4.71 nM, respectively.
The matching figures for `CCCC[C@H]1C(=O)N(C)[C@@H](CCCC)C(=O)N[C@@H](CCCNC(=N)N)C(=O)N[C@H](C(=O)NCC(=O)O)CSCC(=O)N[C@@H](Cc2ccc(O)cc2)C(=O)N(C)[C@@H](C)C(=O)N[C@@H](CC(N)=O)C(=O)N2CCC[C@H]2C(=O)N[C@@H](Cc2cnc[nH]2)C(=O)N[C@@H](CC(C)C)C(=O)N2C[C@H](O)C[C@H]2C(=O)N[C@@H](Cc2c[nH]c3ccccc23)C(=O)N[C@@H](CO)C(=O)N[C@@H](Cc2c[nH]c3ccccc23)C(=O)N1C` [Example 5068]: 6.76 to 30.3 nM and 0.158 to 4.71 nM.
